#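 Results reflect a 48-hour exposure of cells in 96-well plates to compound at five concentrations. Abbreviation: GI50, concentration required for 50% inhibition of growth.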 The source made the active and inactive calls. Rule as the data show it: active = GI50 up to about 1.1 µM and inactive = higher.
# Experiments:
# Assay in all cases: NCI anticancer screen, dose series, 48 h
# NCI/ADR-RES = tested on: NCI/ADR-RES
# NCI-H522 = tested on: NCI-H522
# SF-295 = tested on: SF-295
# MDA-MB-231 = tested on: MDA-MB-231
# UACC-257 = tested on: UACC-257
# NCI-H226 = tested on: NCI-H226
# U-251 = tested on: U-251
# NCI-H460 = tested on: NCI-H460
# K562 = tested on: K562
# LOX IMVI = tested on: LOX IMVI
# HCT-15 = tested on: HCT-15
# MDA-N = tested on: MDA-N
# M14 = tested on: M14
# ACHN = tested on: ACHN
# SNB-19 = tested on: SNB-19
# 786-0 = tested on: 786-0
SMILES,GI50 (NCI/ADR-RES),GI50 (NCI-H522),GI50 (SF-295),GI50 (MDA-MB-231),GI50 (UACC-257),GI50 (NCI-H226),GI50 (U-251),GI50 (NCI-H460),GI50 (K562),GI50 (LOX IMVI),GI50 (HCT-15) [µM],GI50 (MDA-N),GI50 (M14),GI50 (ACHN),GI50 (SNB-19),GI50 (786-0)
C[N+](CCCl)(CCCl)Cc1cccc2cccc([N+](=O)[O-])c12,> 100 µM (inactive),73.1 µM (inactive),> 100 µM (inactive),> 100 µM (inactive),37.2 µM (inactive),> 100 µM (inactive),> 100 µM (inactive),53.8 µM (inactive),> 100 µM (inactive),48.1 µM (inactive),> 100,> 100 µM (inactive),> 100 µM (inactive),44.5 µM (inactive),75.2 µM (inactive),> 100 µM (inactive)
O=C(CCN1CCCCC1)c1csc2ccccc12,> 100 µM (inactive),> 100 µM (inactive),> 100 µM (inactive),> 100 µM (inactive),> 100 µM (inactive),> 100 µM (inactive),> 100 µM (inactive),> 100 µM (inactive),> 100 µM (inactive),> 100 µM (inactive),> 100,> 100 µM (inactive),> 100 µM (inactive),> 100 µM (inactive),> 100 µM (inactive),50.1 µM (inactive)
CCOC(=O)C(NC(=O)c1ccccc1)(N1CCOCC1)C(F)(F)F (centres undefined),> 100 µM (inactive),> 100 µM (inactive),> 100 µM (inactive),> 100 µM (inactive),> 100 µM (inactive),> 100 µM (inactive),> 100 µM (inactive),–,> 100 µM (inactive),> 100 µM (inactive),> 100,> 100 µM (inactive),> 100 µM (inactive),> 100 µM (inactive),> 100 µM (inactive),> 100 µM (inactive)
Cc1ccc(O)c(C(c2cccc(C(c3cc(C)ccc3O)c3cc(C)ccc3O)c2)c2cc(C)ccc2O)c1,3.01 µM (inactive),1.64 µM (inactive),2.24 µM (inactive),1.25 µM (inactive),1.94 µM (inactive),1.77 µM (inactive),1.77 µM (inactive),–,1.81 µM (inactive),1.54 µM (inactive),1.87,1.79 µM (inactive),1.88 µM (inactive),1.73 µM (inactive),1.89 µM (inactive),1.69 µM (inactive)
Cc1cc(O)c2c(c1)CC(O)C1=C2C(=O)c2c(O)ccc(OC3CC(O)C(OC4CC(OC5CCC(O)C(C)O5)C(O)C(C)O4)C(C)O3)c2C1=O (centres undefined),2.93 µM (inactive),0.964 µM (active),2.34 µM (inactive),1.77 µM (inactive),1.57 µM (inactive),1.5 µM (inactive),1.32 µM (inactive),2.16 µM (inactive),1.63 µM (inactive),1.33 µM (inactive),1.96,1.84 µM (inactive),1.5 µM (inactive),1.58 µM (inactive),1.6 µM (inactive),1.42 µM (inactive)
C1COCCOP2(N3CC3)=NP(N3CC3)(=NP(N3CC3)(N3CC3)=N2)OCCOCCO1 (centres undefined),> 100 µM (inactive),> 100 µM (inactive),> 100 µM (inactive),> 100 µM (inactive),> 100 µM (inactive),> 100 µM (inactive),> 100 µM (inactive),–,> 100 µM (inactive),25.4 µM (inactive),> 100,> 100 µM (inactive),> 100 µM (inactive),> 100 µM (inactive),> 100 µM (inactive),> 100 µM (inactive)
COc1ccc([C@H]2[C@H](C)C3=Nc4ccccc4CN32)cc1,> 100 µM (inactive),> 100 µM (inactive),49.4 µM (inactive),> 100 µM (inactive),> 100 µM (inactive),85.1 µM (inactive),51.5 µM (inactive),31.6 µM (inactive),39.2 µM (inactive),39.8 µM (inactive),76.2,20.7 µM (inactive),42.6 µM (inactive),86.9 µM (inactive),> 100 µM (inactive),54.1 µM (inactive)
CC1=NC2(CCCCC2)N(Cl)C(=O)C1SC#N (centres undefined),20.3 µM (inactive),16.7 µM (inactive),18.7 µM (inactive),17.6 µM (inactive),–,24 µM (inactive),19.4 µM (inactive),> 10 µM (inactive),9.46 µM (inactive),10.7 µM (inactive),23.8,15.8 µM (inactive),16.2 µM (inactive),17.7 µM (inactive),23.4 µM (inactive),17.5 µM (inactive)
NCCCN(CCCCN(CCCN)CCCc1ccccc1)CCCc1ccccc1,20.1 µM (inactive),2.09 µM (inactive),1.69 µM (inactive),2.02 µM (inactive),1.79 µM (inactive),17.6 µM (inactive),1.98 µM (inactive),1.42 µM (inactive),1.77 µM (inactive),2.36 µM (inactive),1.96,1.74 µM (inactive),1.76 µM (inactive),2.68 µM (inactive),1.19 µM (inactive),1.7 µM (inactive)
CC(C)(C)OC(=O)Nc1cc(-c2ccccc2)co1,> 100 µM (inactive),17.3 µM (inactive),> 100 µM (inactive),68.7 µM (inactive),> 100 µM (inactive),> 100 µM (inactive),54.6 µM (inactive),–,67 µM (inactive),> 100 µM (inactive),> 100,86.3 µM (inactive),> 100 µM (inactive),> 100 µM (inactive),> 100 µM (inactive),> 100 µM (inactive)
CC(=O)/N=C1\NC(=O)/C(=C/c2ccccc2Cl)N1C,43.2 µM (inactive),> 100 µM (inactive),> 100 µM (inactive),> 100 µM (inactive),> 100 µM (inactive),> 100 µM (inactive),> 100 µM (inactive),> 100 µM (inactive),–,> 100 µM (inactive),65.9,> 100 µM (inactive),> 100 µM (inactive),> 100 µM (inactive),> 100 µM (inactive),> 100 µM (inactive)
O=C1C=C(Nc2ccc(Br)cc2)c2ccccc2/C1=N/O,8.67 µM (inactive),28.1 µM (inactive),1.54 µM (inactive),9.75 µM (inactive),1.58 µM (inactive),2.32 µM (inactive),4.93 µM (inactive),2.3 µM (inactive),8.71 µM (inactive),2.18 µM (inactive),3.14,1.89 µM (inactive),1.63 µM (inactive),7.31 µM (inactive),2.5 µM (inactive),9.73 µM (inactive)
CCOc1ccc(-n2nnc3c(N)nc(N)nc32)cc1,> 100 µM (inactive),> 100 µM (inactive),> 100 µM (inactive),> 100 µM (inactive),> 100 µM (inactive),> 100 µM (inactive),> 100 µM (inactive),> 100 µM (inactive),> 100 µM (inactive),> 100 µM (inactive),> 100,> 100 µM (inactive),> 100 µM (inactive),> 100 µM (inactive),29.1 µM (inactive),> 100 µM (inactive)
OC(C/C(=N\N=C(/CC(O)(C(F)(F)F)C(F)(F)F)c1ccccc1)c1ccccc1)(C(F)(F)F)C(F)(F)F,> 10 µM (inactive),> 10 µM (inactive),6.44 µM (inactive),> 10 µM (inactive),> 10 µM (inactive),> 10 µM (inactive),> 10 µM (inactive),> 10 µM (inactive),> 10 µM (inactive),> 10 µM (inactive),> 10,> 10 µM (inactive),> 10 µM (inactive),> 10 µM (inactive),> 10 µM (inactive),> 10 µM (inactive)
CC(=O)C1=CN=C2C(=O)N(c3ccccc3)N(C)C12C (centres undefined),55.1 µM (inactive),> 100 µM (inactive),> 100 µM (inactive),> 100 µM (inactive),> 100 µM (inactive),> 100 µM (inactive),> 100 µM (inactive),–,> 100 µM (inactive),> 100 µM (inactive),69.7,> 100 µM (inactive),> 100 µM (inactive),> 100 µM (inactive),> 100 µM (inactive),> 100 µM (inactive)
Cc1nc2ccc(S(=O)(=O)Nc3ccc(Cl)cc3)cc2c(=O)n1NC(=O)CNc1ccc(Cl)cc1,> 100 µM (inactive),> 100 µM (inactive),> 100 µM (inactive),> 100 µM (inactive),> 100 µM (inactive),> 100 µM (inactive),> 100 µM (inactive),> 100 µM (inactive),> 100 µM (inactive),> 100 µM (inactive),> 100,> 100 µM (inactive),> 100 µM (inactive),> 100 µM (inactive),> 100 µM (inactive),> 100 µM (inactive)
NC(Cc1ccc(S(=O)(=O)O)cc1)C(=O)NC(Cc1ccc(S(=O)(=O)O)cc1)C(=O)O (centres undefined),> 100 µM (inactive),> 100 µM (inactive),> 100 µM (inactive),> 100 µM (inactive),> 100 µM (inactive),> 100 µM (inactive),> 100 µM (inactive),> 100 µM (inactive),0.0475 µM (active),> 100 µM (inactive),> 100,> 100 µM (inactive),> 100 µM (inactive),> 100 µM (inactive),–,> 100 µM (inactive)
Cc1cc(S(=O)(=O)Nc2nc(N)n(-c3ccccn3)n2)c(S)cc1Cl,> 100 µM (inactive),> 100 µM (inactive),–,> 100 µM (inactive),> 100 µM (inactive),> 100 µM (inactive),> 100 µM (inactive),> 100 µM (inactive),> 100 µM (inactive),> 100 µM (inactive),> 100,> 100 µM (inactive),> 100 µM (inactive),> 100 µM (inactive),> 100 µM (inactive),> 100 µM (inactive)

# Source: ChEMBL document CHEMBL1201862, “PubChem BioAssay data set” (2004)
